For nine molecules, pest or weed control results are on record in patent publication US20120202690A1, “HERBICIDAL COMPOUNDS” (SYNGENTA LIMITED, priority 2009, published 2012).

Common to all, as to assay type: in vivo
The subject of assay [1] is Alopecurus myosuroides (ALOMY). Description: Pre-emergence biological efficacy, glasshouse, 1000 g/ha, evaluated after 13 days (100=total damage to plant; 0=no damage to plant). The conditions noted are these: Alopecurus myosuroides, 312 h, rate 1,000 g/ha, read-out: Percentage damage caused to weed species, pre-emergence, ALOMY. Put shortly: (§1)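 Seeds were sown in standard soil in pots, then grown in a controlled glasshouse at 24/16° C. day/night, 14 hours light and 65% humidity, with watering twice daily.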

In assay [2] the test system is Solanum nigrum (SOLNI). Described as above. The settings on record: Solanum nigrum, 312 h, rate 1,000 g/ha, read-out: Percentage damage caused to weed species, pre-emergence, SOLNI. Put shortly: as §1
Assay [3] concerns Echinochloa crus-galli (ECHCG). Described as above. The conditions noted are these: Echinochloa crus-galli, 312 h, rate 1,000 g/ha, read-out: Percentage damage caused to weed species, pre-emergence, ECHCG. Put shortly: as §1
In assay [4] the test system is Ipomoea hederaceae (IPOHE). The assay is described as above. The settings on record: Ipomoea, 312 h, rate 1,000 g/ha, read-out: Percentage damage caused to weed species, pre-emergence, IPOHE. A digest of the protocol: as §1
Assay [5] concerns Setaria faberi (SETFA). Described as above. The settings on record: Setaria faberi, 312 h, rate 1,000 g/ha, read-out: Percentage damage caused to weed species, pre-emergence, SETFA. A digest of the protocol: as §1
The subject of assay [6] is Amaranthus retroflexus (AMARE). Described as above. The settings on record: Amaranthus retroflexus, 312 h, rate 1,000 g/ha, read-out: Percentage damage caused to weed species, pre-emergence, AMARE. Put shortly:
as §1

For assay [7], the system named is Alopecurus myosuroides (ALOMY). The assay can be described thus: Post-emergence biological efficacy, glasshouse, 500 or 1000 g/ha, evaluated after 13 days (100=total damage to plant; 0=no damage to plant). The conditions noted are these: Alopecurus myosuroides, 312 h, rate 1,000 g/ha, read-out: Percentage damage caused to weed species, post-emergence, ALOMY. Put shortly: (§2)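 Standard soil, potted from seed; post-emergence treatment; glasshouse 24/16° C. (day/night), 14 h light, 65% humidity; watering twice daily.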

Assay [8] concerns Echinochloa crusgaffi (ECHCG). The description is as above. The settings on record: Echinochloa, 312 h, rate 1,000 g/ha, read-out: Percentage damage caused to weed species, post-emergence, ECHCG. Put shortly:
as §2

Assay [9] has as its system Solanum nigrum (SOLNI). Described as above. The settings on record: Solanum nigrum, 312 h, rate 1,000 g/ha, read-out: Percentage damage caused to weed species, post-emergence, SOLNI. A digest of the protocol:
as §2

For assay [10], the system named is Ipomoea hederaceae (IPOHE). Described as above. The conditions noted are these: Ipomoea, 312 h, rate 1,000 g/ha, read-out: Percentage damage caused to weed species, post-emergence, IPOHE. A digest of the protocol: as §2
Assay [11] has as its system Setaria faberi (SETFA). The description is as above. The settings on record: Setaria faberi, 312 h, rate 1,000 g/ha, read-out: Percentage damage caused to weed species, post-emergence, SETFA. A digest of the protocol: as §2
The subject of assay [12] is Amaranthus retroflexus (AMARE). The assay is described as above. The conditions noted are these: Amaranthus retroflexus, 312 h, rate 1,000 g/ha, read-out: Percentage damage caused to weed species, post-emergence, AMARE. A digest of the protocol: as §2

The structures appear in SMILES notation.

With `COC(=O)c1nc(-c2ccc(Cl)c(OC)c2F)nc2c1N(Cc1ccccc1)C(C)N2Cc1ccccc1` (stereo not drawn) [Compound 81-46, 2-(4-chloro-2-fluoro-3-methoxyphenyl)-7,9-dibenzyl-6-methoxycarbonyl-8-methyl-8,9-dihydro-7H-purine], the pest or weed control at 1000 g/ha (in assay [1]; in the assay with Solanum nigrum (SOLNI) [2]; in assay [3]; in assay [4]; in the assay with Setaria faberi (SETFA) [5]; in [6]) was 0% each time. In addition, the pest or weed control at 1000 g/ha in assay [7] was determined as 0%; in assay [8], 0%; in the assay with Solanum nigrum (SOLNI) [9], 10%; in [10], 0%; with Setaria faberi (SETFA) [11], 10%; in assay [12], 0%.

As for `COC(=O)c1nc(-c2ccc(Cl)c(OC)c2F)cc2c1c(C)cn2C(=O)OC` [Compound 38-64, 6-(4-Chloro-2-fluoro-3-methoxyphenyl)-1,4-di(methoxycarbonyl)-3-methyl-1H-pyrrolo[3,2-c]pyridine], the pest or weed control at 1000 g/ha (in [1]; in the assay with Solanum nigrum (SOLNI) [2]; in assay [3]; in assay [4]; with Setaria faberi (SETFA) [5]; in assay [6]) was 0% in each case. Besides, the pest or weed control at 1000 g/ha in [7] came to 10%; in assay [8] it was 0%; in the assay with Solanum nigrum (SOLNI) [9] it was 10%; in assay [10] it was 20%; with Setaria faberi (SETFA) [11], 10%; in assay [12], 0%.

Regarding `COC(=O)c1nc(-c2ccc(Cl)c(OC)c2F)nc2c1OCCN2C` [Compound 106-74, 2-(4-Chloro-2-fluoro-3-methoxyphenyl)-4-methoxycarbonyl-8-methyl-7,8-dihydro-6H-pyrimido[5,4-b][1,4]oxazine], the pest or weed control at 1000 g/ha (in assay [1]; in the assay with Solanum nigrum (SOLNI) [2]; in assay [3]; in assay [4]; with Setaria faberi (SETFA) [5]; in [6]) was 0% in each case. In addition, the pest or weed control at 1000 g/ha (in assay [7]; in assay [8]; in the assay on Solanum nigrum (SOLNI) [9]; in assay [10]; with Setaria faberi (SETFA) [11]; in assay [12]) was 0% in each case.

`CCOC(=O)c1nc(-c2ccc(Cl)c(OC)c2F)nc2[nH]cc(C)c12` [Compound 1-75, 2-(4-Chloro-2-fluoro-3-methoxyphenyl)-4-ethoxycarbonyl-5-methyl-7H-pyrrolo[2,3-d]pyrimidine]: the pest or weed control at 1000 g/ha (in assay [1]; with Solanum nigrum (SOLNI) [2]; in [3]; in assay [4]; in the assay with Setaria faberi (SETFA) [5]; in assay [6]) was 0% each time. Also, the pest or weed control at 1000 g/ha in assay [7] was determined as 0%; in [8], 0%; with Solanum nigrum (SOLNI) [9], 70%; in [10], 70%; in the assay on Setaria faberi (SETFA) [11], 0%; in [12] it was 40%.

Regarding `C=CCOC(=O)c1nc(-c2ccc(Cl)c(OC)c2F)cc2[nH]cc(C)c12` [Compound 22-80, 6-(4-Chloro-2-fluoro-3-methoxyphenyl)-3-methyl-4-(prop-2-enyloxycarbonyl)-1H-pyrrolo[3,2-c]pyridine], the pest or weed control at 1000 g/ha in [1] turned out to be 20%; with Solanum nigrum (SOLNI) [2] it was 60%; in [3] it was 20%; in [4] it was 50%; in the assay on Setaria faberi (SETFA) [5], 20%; in assay [6], 40%. The pest or weed control at 1000 g/ha in assay [7] was 10%; in assay [8], 10%; with Solanum nigrum (SOLNI) [9], 90%; in assay [10], 50%; in the assay on Setaria faberi (SETFA) [11], 20%; in assay [12] it was 70%.

Turning to `COC(=O)c1nc(-c2ccc(Cl)c(OC)c2F)nc2c1c(C)cn2Cc1ccc(C(F)(F)F)o1` [Compound 12-64], the pest or weed control at 1000 g/ha (in assay [1]; with Solanum nigrum (SOLNI) [2]; in assay [3]; in assay [4]; with Setaria faberi (SETFA) [5]; in [6]) was 0% in each case. Further, the pest or weed control at 1000 g/ha in assay [7] was 10%; in assay [8], 10%; with Solanum nigrum (SOLNI) [9] it was 30%; in [10], 50%; in the assay on Setaria faberi (SETFA) [11], 30%; in [12], 20%.

`COC(=O)c1nc(C2CC2)nc2[nH]cc(C)c12` [Compound 1-4, 2-Cyclopropyl-4-methoxycarbonyl-5-methyl-7H-pyrrolo[2,3-d]pyrimidine]: the pest or weed control at 1000 g/ha in assay [1] was found to be 10%; in the assay on Solanum nigrum (SOLNI) [2], 90%; in assay [3] it was 30%; in assay [4] it was 60%; in the assay with Setaria faberi (SETFA) [5], 30%; in [6], 90%. Further, the pest or weed control at 1000 g/ha in assay [7] worked out at 10%; in assay [8], 70%; in the assay on Solanum nigrum (SOLNI) [9], 90%; in assay [10] it was 70%; in the assay with Setaria faberi (SETFA) [11] it was 80%; in [12] it was 100%.

With `COC(=O)c1nc(-c2ccc(Cl)c(N(C)C)c2F)nc2[nH]c(C)c(C)c12` [Compound 1-120, 2-(4-Chloro-3-dimethylamino-2-fluorophenyl)-5,6-dimethyl-4-methoxycarbonyl-7H-pyrrolo[2,3-d]pyrimidine], the pest or weed control at 1000 g/ha (in assay [1]; in the assay with Solanum nigrum (SOLNI) [2]; in assay [3]; in assay [4]; with Setaria faberi (SETFA) [5]; in assay [6]) was 0% throughout. Further, the pest or weed control at 1000 g/ha is 0% in [7]; 0% in [8]; 20% with Solanum nigrum (SOLNI) [9]; 20% in assay [10]; 0% in the assay on Setaria faberi (SETFA) [11]; 10% in [12].

In the case of `O=C(O)c1nc(C2CC2)nc2c1ccn2Cc1ccccc1[N+](=O)[O-]` [Compound 8-1, 4-Carboxy-2-cyclopropyl-7-(2-nitrophenyl-methyl)-7H-pyrrolo[2,3-d]pyrimidine], the pest or weed control at 1000 g/ha (in assay [1]; in the assay with Solanum nigrum (SOLNI) [2]; in assay [3]; in [4]; in the assay with Setaria faberi (SETFA) [5]; in assay [6]) was 0% each time. For the same molecule, the pest or weed control at 1000 g/ha in [7] is 0%; in [8] it was 10%; in the assay on Solanum nigrum (SOLNI) [9] it was 30%; in [10] it was 40%; in the assay with Setaria faberi (SETFA) [11], 0%; in assay [12], 0%.
